Data reported in publication PMC9343874, “Comparative Pharmacokinetics of Cinobufacini Capsule and Injection by UPLC-MS/MS” (Frontiers in Pharmacology, 2022).
Read-outs that look alike come from different tables or passages of the source.

What was measured:
[1] = Stability of analytes in rat plasma QC samples under storage conditions; type: physicochemical; details: n = 6; for Stability during 24 h at 4°C, RE: post-treatment storage in autosampler; for −80°C for 30 days, RE / Three freeze–thaw cycles, RE: rat plasma; for −80°C for 30 days, RE: long-term; for Three freeze–thaw cycles, RE: −80°C to room temperature
Description: The stability of QC samples in six replicates at three concentrations (low, medium, and high levels) was analyzed under different storage conditions: the post-treatment stability was analyzed after storage in an autosampler (4°C) for 24 h. Freeze–thaw stability was investigated after three freeze–thaw cycles (−80°C to room temperature as one cycle). Long-term stability was assessed by analyzing QC samples kept at −80°C for 30 days. The concentrations of the analytes in the plasma samples and the QC samples were calculated by the calibration standard curve prepared each day. The stabilities of analytes were acceptable when the accuracy (RE, %) and precision (RSD, %) of all QC samples in all storage conditions were within ±15% compared to nominal concentrations.

[2] = Pharmacokinetic study in rats after intravenous administration of cinobufacini injection (UPLC-MS/MS of plasma); type: in vivo, rat; details: cinobufacini injection group, intravenous
Description: (§1) Male Sprague–Dawley rats (weighing 200–220 g) of SPF grade were offered by Sippr/BK laboratory Animal, Corp., Ltd. (Shanghai, China) and fed in the Laboratory Animal Center of the Shanghai University of Traditional Chinese Medicine. All the rats were kept under environmentally controlled conditions with constant temperature (22–24°C) and humidity (60–65%). The animal experiment program in the present research was approved by the Animal Committee of the Shanghai University of Traditional Chinese Medicine (PZSHUTCM210618012).
(§2) An Agilent 1290 liquid chromatographic system includes a G4220A quaternary pump, a G1326C column incubator, a G4226A automatic sampler, and a G1330B degasser. The column temperature was set to 35°C. A measure of 5 µL of samples were separated in an Agilent SB-C18 column (2.1 mm ×50 mm, 1.8 μm) and eluted at 0.3 ml/min, followed by gradient elution with water (0.1% V/V formic acid) (A) and acetonitrile (B) (0–1 min, 20%–20% B; 1–3.5 min, 20%–80% B; 4–4.1 min, 80%-20% B; 4.1–6 min, 20% B). The total run time was 6 minutes.
(§3) An Agilent 1290 Infinity series UPLC system was combined with an Agilent 6460 series triple quadrupole mass spectrometer (Agilent Technologies, Santa Clara, CA, United States) to quantify all 13 analytes in an ESI-positive ionization mode. Quantitative analysis was performed in an MRM mode. The mass spectrum conditions were as follows: capillary voltage, 4000V; drying gas (N2), gas flow rate: 10 L/min; sprayer, 30 psi; gas temperature 350°C; The delta EMV (+) 200 V; collision gas (N2); dwell time, 25 ms. Agilent’s MassHunter Workstation software was used for data collection, peak area calculation, and quantitative analysis.
(§4) A measure of 50 µL of the plasma sample was mixed with 10 µL of the internal standard solution (345 ng/ml) in a 1.5-ml centrifuge tube and vortexed for 5 min. The samples were extracted by 500 µL of ethyl acetate for 5 min and centrifuged at 4°C for 10 min (18000 rpm). All the supernatants were collected into another 1.5-ml centrifuge tube, dried under a gentle stream of nitrogen at 37°C, and then added with 50 µL of 80% methanol for resolution. The resolution samples were centrifuged at 4°C for 10 min (18000 rpm), and 5 µL supernatant was extracted and injected for analysis.
(§5) Twenty-four male Sprague–Dawley rats (weigh 200–220 g) were divided into four groups with six rats in each group randomly, including three capsule groups at three different doses and one injection group. In the instructions for cinobufacini capsule and injection, the clinical dosage for adults is 2 g per 70 kg orally and 20 ml per 70 kg intravenously, converting to rat doses of 180 mg/kg and 1.8 ml/kg, respectively.
(§6) In the pre-experiments, we compared cinobufacini capsule of 180 mg/kg (one-time clinical dose) and 900 mg/kg (five times of clinical dose) and Cinobufacini injection of 1.8 ml/kg, but concentrations of some compounds in plasma were too low and difficult to be quantified. […] The experimental rats were led to fast the night and were free to get access to water for 12 h before the pharmacokinetic study. After administration, blood samples (approximately 150 μL) of rats were collected via retro-orbital sinus into heparinized centrifuge tubes at 0.05, 0.083, 0.25, 0.5, 0.75, 1, 2, 4, 6, 8, and 10 h. After centrifugation at 5,000 rpm for 10 min, the plasma was transferred to 1.5-ml polypropylene tubes and stored at −80°C until UPLC-MS/MS analysis.
(§7) GraphPad Prism software (version 8.0.2) was used to draw the mean plasma concentration–time curves of all analytes. The pharmacokinetic parameters were calculated by DAS 3.2.8 software. Meanwhile, the pharmacokinetic data on rats were presented as mean ± standard deviation (SD). Differences of pharmacokinetic parameters between groups were analyzed by the t-test using SPSS software (version 26.0). Differences were considered significant statistically when the p-values were <0.05 and very significant statistically when the p-values were <0.01.

[3] = design: method as in Huang et al., 2015; details: after administration of Shexiang Baoxin pill; ref Huang et al., 2015; cited from earlier work
[4] = Pharmacokinetic study in rats after oral administration of cinobufacini capsule (UPLC-MS/MS of plasma); type: in vivo, rat; details: for detection in rat plasma: cinobufacini capsule groups
Description: as §1, §2, §3, §4, §5, §6, §7

[5] = design: method as in Wang et al., 2014; details: administration dose 1.11 mg/kg; ref Wang et al., 2014; cited from earlier work
[6] = high QC level (249.58–250.28 ng/ml)
[7] = medium QC level (49.92–50.06 ng/ml)

Structure (SMILES)	Stability during 24 h at 4°C, RE [1, 6] [%]	Stability during 24 h at 4°C, RE ([1]; low QC level (4.99–5.00 ng/ml)) [%]	Stability during 24 h at 4°C, RE [1, 7] [%]	−80°C for 30 days, RE [1, 6] [%]	−80°C for 30 days, RE ([1]; low QC level (4.99–5.00 ng/ml)) [%]	−80°C for 30 days, RE [1, 7] [%]	Three freeze–thaw cycles, RE [1, 6] [%]	Three freeze–thaw cycles, RE ([1]; low QC level (4.99–5.00 ng/ml)) [%]	Three freeze–thaw cycles, RE [1, 7] [%]	detection in rat plasma [2]	concentration in plasma [3]	detection in rat plasma [4]	concentration in plasma ([4]; present study)	detection in plasma [3]	Cmax [5] [ng/mL]
CC(=O)O[C@H]1C[C@]2(O)[C@@H]3CC[C@@H]4C[C@@H](O)CC[C@]4(C)[C@H]3CC[C@]2(C)[C@H]1c1ccc(=O)oc1 [BL, bufotalin]	5.7	11.4	5.0	6.0	2.3	2.1	7.1	3.4	3.1	could not be detected	lower than 4.4 ng/ml	could not be detected	too low to calculate the pharmacokinetics parameters accurately	–	–
CC(=O)O[C@H]1[C@H]2O[C@]23[C@@H]2CC[C@@H]4C[C@@H](O)CC[C@]4(C)[C@H]2CC[C@]3(C)[C@H]1c1ccc(=O)oc1 [CBG, cinobufagin]	0.6	4.8	−3.2	2.3	3.7	−1.0	3.4	4.8	0.0	could not be detected	–	could not be detected	–	not detected	4.49
CC(=O)O[C@H]1[C@H]2O[C@]23[C@@H]2CC[C@]4(O)C[C@@H](O)CC[C@]4(C)[C@H]2CC[C@]3(C)[C@H]1c1ccc(=O)oc1 [CBT, cinobufotalin]	4.8	9.8	7.7	−8.7	−0.3	4.1	12.0	4.3	13.2	could not be detected	–	could not be detected	–	–	–
C[C@]12CC[C@H](O)C[C@H]1CC[C@@H]1[C@@H]2CC[C@]2(C)[C@@H](c3ccc(=O)oc3)C[C@H]3O[C@]132 [RBG, resibufogenin]	−3.3	−6.4	3.5	−2.8	−1.3	2.3	−1.9	−0.3	3.3	could not be detected	–	could not be detected	–	–	–
